From ChEMBL document CHEMBL1201862, “PubChem BioAssay data set” (2004)
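Where inhibition never reached the appropriate level, the endpoint shown equals the highest concentration tested. Otherwise, values were interpolated linearly from a five-concentration, 48-hour dose response in 96-well plates. GI50 = concentration required for 50% inhibition of growth.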 The source made the active and inactive calls. Cut-off read from the data, not from the text of the source: active = GI50 up to about 1.1 µM and inactive = higher.

Legend:
Experiment in all cases: inhibition of tumour cell growth, NCI panel, 48 h
SN12C = test system: SN12C
NCI-H226 = test system: NCI-H226
RPMI-8226 = test system: RPMI-8226
A549 = test system: A549
HOP-62 = test system: HOP-62
NCI-H23 = test system: NCI-H23
OVCAR-3 = test system: OVCAR-3
OVCAR-8 = test system: OVCAR-8
IGROV-1 = test system: IGROV-1
UACC-257 = test system: UACC-257
SF-539 = test system: SF-539
U-251 = test system: U-251
CCRF-CEM = test system: CCRF-CEM
HCT-116 = test system: HCT-116
SK-MEL-28 = test system: SK-MEL-28
OVCAR-5 = test system: OVCAR-5
SR = test system: SR

Measured: GI50

CCc1ccccc1NC(=O)/C(=N/O)C(C)=O
inactive: SN12C 96.8 µM | NCI-H226 62.1 µM | RPMI-8226 > 100 µM | A549 > 100 µM | HOP-62 > 100 µM | NCI-H23 > 100 µM | OVCAR-3 > 100 µM | OVCAR-8 > 100 µM | IGROV-1 > 100 µM | UACC-257 > 100 µM | SF-539 > 100 µM | U-251 > 100 µM | CCRF-CEM > 100 µM | HCT-116 > 100 µM | SK-MEL-28 > 100 µM

CC1CCCP(=O)(c2ccccc2)CCC1 (stereo unspecified)
inactive: SN12C > 100 µM | RPMI-8226 > 100 µM | A549 > 100 µM | HOP-62 > 100 µM | NCI-H23 > 100 µM | OVCAR-3 > 100 µM | OVCAR-8 > 100 µM | IGROV-1 > 100 µM | UACC-257 > 100 µM | OVCAR-5 > 100 µM | SF-539 > 100 µM | U-251 > 100 µM | CCRF-CEM > 100 µM | SK-MEL-28 > 100 µM

O=C(Cc1nc2ccccc2s1)C(=O)Nc1cccc(Cl)c1
inactive: SN12C > 100 µM | NCI-H226 > 100 µM | RPMI-8226 > 100 µM | A549 > 100 µM | HOP-62 > 100 µM | NCI-H23 > 100 µM | OVCAR-3 > 100 µM | OVCAR-8 > 100 µM | IGROV-1 > 100 µM | UACC-257 > 100 µM | OVCAR-5 > 100 µM | SF-539 > 100 µM | U-251 > 100 µM | CCRF-CEM > 100 µM | HCT-116 > 100 µM | SK-MEL-28 > 100 µM

COc1cc(CCCC(O)COc2cccc3c2C2(O)CCCCCC32)cc(OC)c1 (stereo unspecified)
inactive: SN12C 17.2 µM | NCI-H226 16.2 µM | RPMI-8226 18.5 µM | A549 16.1 µM | HOP-62 15 µM | NCI-H23 16.9 µM | OVCAR-8 19.1 µM | IGROV-1 15.2 µM | UACC-257 15.6 µM | OVCAR-5 15.4 µM | SF-539 13.4 µM | U-251 18.9 µM | CCRF-CEM 25.8 µM | HCT-116 17.7 µM | SK-MEL-28 17 µM

Cc1nc2sccn2c1C(=O)NC(=O)Nc1ccc(Cl)cc1
inactive: SN12C > 100 µM | NCI-H226 71.9 µM | RPMI-8226 > 100 µM | A549 57.4 µM | HOP-62 41.3 µM | NCI-H23 35.7 µM | OVCAR-3 60.3 µM | OVCAR-8 > 100 µM | IGROV-1 > 100 µM | UACC-257 > 100 µM | OVCAR-5 > 100 µM | SF-539 41.2 µM | U-251 50.5 µM | CCRF-CEM > 100 µM | HCT-116 46.2 µM | SK-MEL-28 > 100 µM

N=C(c1ccccc1)N(c1ccccc1)c1ccccc1
inactive: SN12C 22.5 µM | NCI-H226 23.1 µM | A549 > 100 µM | HOP-62 > 100 µM | NCI-H23 > 100 µM | OVCAR-8 > 100 µM | UACC-257 > 100 µM | OVCAR-5 76.7 µM | SR 30.7 µM | SF-539 74.1 µM | U-251 > 100 µM | HCT-116 40.5 µM | SK-MEL-28 > 100 µM

O=CC1=CCCC2(C1)OCCO2
inactive: SN12C > 100 µM | RPMI-8226 > 100 µM | A549 > 100 µM | HOP-62 > 100 µM | NCI-H23 > 100 µM | OVCAR-3 > 100 µM | OVCAR-8 > 100 µM | IGROV-1 > 100 µM | UACC-257 > 100 µM | SF-539 > 100 µM | U-251 > 100 µM | CCRF-CEM > 100 µM | HCT-116 > 100 µM | SK-MEL-28 > 100 µM

Cc1cccc(-c2nnc3s/c(=C\c4ccc5c(c4)OCO5)c(=O)n23)c1
inactive: SN12C > 100 µM | NCI-H226 > 100 µM | RPMI-8226 > 100 µM | A549 > 100 µM | HOP-62 > 100 µM | NCI-H23 > 100 µM | OVCAR-3 > 100 µM | OVCAR-8 > 100 µM | IGROV-1 > 100 µM | UACC-257 29.8 µM | OVCAR-5 > 100 µM | SF-539 > 100 µM | U-251 > 100 µM | CCRF-CEM > 100 µM | HCT-116 > 100 µM | SK-MEL-28 > 100 µM

Nc1c2ccccc2nc2c(C(=O)Nc3ccc(S(N)(=O)=O)cc3)cccc12
inactive: SN12C > 100 µM | NCI-H226 84.3 µM | RPMI-8226 33.1 µM | A549 > 100 µM | HOP-62 > 100 µM | NCI-H23 > 100 µM | OVCAR-3 33.7 µM | OVCAR-8 57.9 µM | IGROV-1 > 100 µM | UACC-257 > 100 µM | OVCAR-5 > 100 µM | SF-539 13.2 µM | U-251 49 µM | CCRF-CEM 12.5 µM | HCT-116 67.5 µM | SK-MEL-28 > 100 µM

CC1=C(C(=O)Nc2ccccc2C)C(c2ccccc2)C(C(=O)Nc2ccccc2C)=C(C)N1
inactive: SN12C 56.6 µM | NCI-H226 > 100 µM | A549 59 µM | HOP-62 40.6 µM | NCI-H23 23.7 µM | OVCAR-3 31.8 µM | OVCAR-8 52 µM | IGROV-1 42.7 µM | UACC-257 37.8 µM | OVCAR-5 > 100 µM | SR 11.7 µM | SF-539 60.4 µM | U-251 37.2 µM | CCRF-CEM 20.9 µM | HCT-116 24.3 µM | SK-MEL-28 > 100 µM
